{"source": "patent US20220088017A1", "about": "“COMPOSITIONS AND METHODS FOR TREATING VIRAL INFECTIONS” (priority 2020, published 2022)", "tested_on": "coronavirus (COVID-19)", "assay": "Observational case: older coronavirus contact with impending right heart failure treated with statin", "type": "in vivo", "settings": "person", "excerpt": "An older person developed signs and symptoms of vascular inflammation and right heart failure. This included occasional headaches, flashes in vision, general fatigue, irritability, muscle pains, epigastric pain, general abdominal distention, inability to eat and circulatory congestion, salty or blood taste in sputum. […] The impending right heart failure was thought to be secondary to myocarditis, circulatory congestion due to poor blood flow as a result of vascular inflammation and sticky walls of blood vessels. The contact was within 6 hours having intermittent chest pains, sweating, and dizziness. Cardiac arrest was thought to be a possible poor outcome leading to mortality. The medical team discussed interventions necessary with statins, with the intention of reducing blood sticking to blood vessels. […] The patient commenced treatment immediately with good results in 3 days' time. The abdominal swelling which was A sign of right heart failure subsided, abdominal pain reduced and the patient was able to eat with circulatory congestion eased.", "key": {"[1]": {"settings": "20 mg daily, with OMEGA 3 based vitamin oil"}}}
{"compound": "CC(C)c1nc(N(C)S(C)(=O)=O)nc(-c2ccc(F)cc2)c1/C=C/[C@@H](O)C[C@@H](O)CC(=O)O", "note": "[rosuvastatin]", "values": [{"measurement": "right heart failure outcome", "setting": "coronavirus contact, 20 mg daily for two weeks, concomitantly with OMEGA 3 based vitamin oil daily", "result": "prevented this patient from going into right heart failure"}, {"measurement": "circulation", "setting": "coronavirus contact, 20 mg daily for two weeks, with OMEGA 3 based vitamin oil", "result": "restored circulation"}, {"measurement": "abdominal swelling (sign of right heart failure)", "setting": "[1]", "result": "subsided"}, {"measurement": "time to good results after start of treatment", "setting": "[1]", "result": 3, "unit": "days"}]}
